Results reported in patent US20040146482A1, “Cosmetic and/or pharmaceutical preparations containing an extract of pterocarpus marsupium” (priority 2001, published 2004).

System: human keratinocytes
Test: Cell protecting effect against UV-B in keratinocytes cultivated in vitro
Assay type: cell-based
Settings: UV-B 50 mJ/cm2, concentration not given
Text: Background: UV-B rays cause inflammation (erythema, edema) by activating an enzyme, namely phospholipase A2 or PLA2, which removes arachidonic acid from the phospholipids of the cell membrane. Arachidonic acid is the precursor of the prostaglandins which cause inflammation and cell membrane damage; the prostaglandins E2 (=PGE2) are formed by cyclooxygenase. A UV-challenged cell produces another inflammation mediator, namely interleucine-1-alpha (1′ILα), which is capable of inducing the secretion of prostaglandins.
Method: The effect of UV-B radiation was investigated in vitro in keratinocytes by determining the release of the cytoplasm enzyme LDH (lactate dehydrogenase) and the(1′ILα) content.
To carry out the tests, a defined medium containing fetal calf serum was inoculated with the keratinocytes and Trichodyn® was added 72 hours after the inoculation.
The keratinocytes were then exposed to a dose of UV-B (50 mJ/cm^2-tubes: DUKE GL40E).
After incubation for another day at 37° C./5% CO2, the LDH content in the supernatant was determined. The LDH (lactate dehydrogenase) content was determined by an enzyme reaction (kit used to determine LDH levels from Roche). In addition , the (1′ILα) content was determined by the ELISA test. The number of adhering keratinocytes was determined (after trypsin treatment) with a particle counter.

CC(=O)Oc1ccccc1C(=O)O [aspirin]
(1′ILα) content (UV-B alone = 100): 69%
Content of released LDH (UV-B alone = 100): 66%
No. of keratinocytes (control without UV-B = 100, UV-B alone 17): 15%
